Test results taken from patent US10317395B1, “Ex vivo engineered immune organoids for controlled germinal center reactions” (Cornell University, priority 2015, dated 2019).
Entries after “also recorded” stand apart in the source; their conditions may differ.

Tested on: CD19+ B cells
Test: RGD blocking of B cells with Cilengitide
Format: cell-based, C57BL6 mice
Settings: 10 or 50 μM Cilengitide, 2 days, 3D organoids; αvβ3 and αvβ5 integrin binding to RGD
Protocol: Immune organoids were incubated in rinsed and incubated in FACS buffer containing fluorescence-conjugated antibodies and/or live cell stains for 12 hours at cell culture conditions. The samples underwent three rinsing rounds with each one involving aspiration of old medium and incubation in fresh FACS buffer for 1 hour. Each organoid was covered with 1×PBS during imaging with Zeiss 710 confocal microscope (Zeiss). In all flow cytometry experiments we started with same number of naïve B cells, i.e. 20,000 B cells. At each time point, samples were degraded using collagenase and the entire cell suspension (regardless of final cell numbers) was re-suspended in equal volume for all samples and equally divided into 3 separate staining groups for flow cytometry analysis (to stain for CD19, GL7, Fas, IgM, IgG1, and IgE). The entire volume was analyzed for total number of cells. Extracted cells were stained by incubation in FACS buffer containing various combinations of antibodies with 1:1000 dilution for 45 minutes in the dark at 4° C. The antibodies consisted of: FITC-, APC, or PE-Cy7-conjugated anti-mouse CD19, GL7, Fas, CD40L, IgG, and IgM (eBioscience). FACS buffer was prepared using 1×PBS++ with 10% FBS. The cell suspension was rinsed twice using the same buffer prior to low cytometer using BD Accuri™ C6 flow cytometer. Data analysis was performed using FlowJo (Tree Star). […]

SMILES: CC(C)[C@H]1C(=O)N[C@@H](CCCN=C(N)N)C(=O)NCC(=O)N[C@@H](CC(=O)O)C(=O)N[C@H](Cc2ccccc2)C(=O)N1C [Cilengitide]
- change in CD19+ B cells when RGD signaling is blocked: partial reduction; also recorded: partial but significant decrease
